ChEMBL document CHEMBL1138988, “Assessment of in vitro and in vivo activities in the National Cancer Institute's anticancer screen with respect to chemical structure, target specificity, and mechanism of action” (2006)
Active and inactive are the calls of the source. The rule behind the calls is not given here.

Key:
[1] = test system: Panel NCI-60 (60 carcinoma cell lines); experiment: Antiproliferative activity against NCI60 cell line; format: functional, Homo sapiens
Mus musculus = experiment: Activity against NCI60 cell line xenograft in nude mouse by HF assay; format: functional

Row | Compound | pGI50 [1] | Activity (Mus musculus)
1 | O=C(OC12CC3CC(CC(C3)C1)C2)c1ccc(NCc2cc(O)ccc2O)cc1 | 5.44 | 10.83
2 | COc1cccc2c1C(=O)c1c(O)c3c(c(O)c1C2=O)CC(O)(C(=O)CO)CC3OC1CC(N)C(O)C(C)O1 (stereo unspecified) | 6.53 | 20.67
3 | CCC1(O)C(=O)OCc2c1cc1n(c2=O)Cc2cc3ccccc3nc2-1 (stereo unspecified) | 5.99 | 13.67
4 | N/C(S)=N/N=C/c1ccc(O)cn1 | 5.92 | 15
5 | CCCCCCC(O)C(O)CCC(O)C1CCC(CCCCC(O)CC2=CC(C)OC2=O)O1 (stereo unspecified) [ACETOGENINS] | 5.53 | inactive
6 | COc1cc2c(c(OC)c1OC)-c1ccc(OC)c(=O)cc1[C@@H](NC(C)=O)CC2 [COLCHICINE] | 5.8 | 19.6
7 | Nc1ccn([C@@H]2O[C@H](CO)[C@@H](O)[C@@H]2O)c(=O)n1 [CYTARABINE] | 5 | 11
8 | CN(Cc1cnc2nc(N)nc(N)c2n1)c1ccc(C(=O)N[C@@H](CCC(=O)O)C(=O)O)cc1 [METHOTREXATE] | 5.55 | 16.8
